This is an account of results in PMC6364417, “Kinase inhibitor library screening identifies synergistic drug combinations effective in sensitive and resistant melanoma cells” (Journal of Experimental & Clinical Cancer Research : CR, 2019).

The structures appear in SMILES notation. Like-named read-outs stand apart in the source and are kept apart here.

The test system of data set [1] is A375 cells (parental). The experiment in a line: Dose-response curves and IC50, PrestoBlue cell viability, 72 h. It is filed as cell-based, human. As to conditions: read-out: Half-maximal inhibitory concentration value (IC50), Mean.
The test system of data set [2] is A375-XP cells (Vemurafenib-resistant). Described as above. As to conditions: n.e. = did not suppress growth below 50% in the tested concentration range; for IC50: read-out: Half-maximal inhibitory concentration value (IC50), Mean. The format is cell-based, human.
Data set [3] relates to A375-GP cells (Dabrafenib-resistant). Described as above. As to conditions: n.e. = did not suppress growth below 50% in the tested concentration range; for IC50: read-out: Half-maximal inhibitory concentration value (IC50), Mean. It is filed as cell-based, human.
For data set [4], the system named is A375 cells. The experiment in a line: Synergy determination with the Chou-Talalay method (CompuSyn), cell viability 72 h. It is filed as cell-based, human. As to conditions: 72 h cell viability, Chou-Talalay / Synergyfinder. As for the experimental part:
The Chou-Talalay method to determine possible synergistic effects of selected kinase inhibitor combinations was used as described in [19]. […] Cells were treated with either single inhibitors or combinations thereof at indicated amounts in technical triplicates. The amounts were pre-determined from each inhibitor’s IC50 value and inhibitors were assayed in a defined dilution series and at constant ratio when combined. […] Combination Index (CI) values showing either synergy (< 1) or antagonism (> 1) were calculated with the CompuSyn software (ComboSyn, Inc).

For data set [5], the system named is IGR37 cells (parental). The experiment in a line: Dose-response curves and IC50, PrestoBlue cell viability, 72 h. Conditions: read-out: Half-maximal inhibitory concentration (IC50).
Data set [6] relates to IGR37-XP cells (Vemurafenib-resistant). The data set is described as above. Conditions: read-out: Half-maximal inhibitory concentration (IC50).
Data set [7] deals with IGR37-GP cells (Dabrafenib-resistant). Described as above. As to conditions: read-out: Half-maximal inhibitory concentration (IC50).
The subject of data set [8] is 501Mel cells (parental). The data set is described as above. Conditions: read-out: Half-maximal inhibitory concentration (IC50).
Data set [9] relates to 501Mel-XP cells (Vemurafenib-resistant). The data set is described as above. Conditions: read-out: Half-maximal inhibitory concentration (IC50).
For data set [10], the system named is 501Mel-GP cells (Dabrafenib-resistant). Described as above. As to conditions: read-out: Half-maximal inhibitory concentration (IC50).
Data set [11] relates to NHDF (normal human dermal fibroblasts). The experiment in a line: Dose-response curves and IC50 in non-cancer cells, cell viability, 72 h. Conditions: fibroblasts (NHDF). As for the experimental part:
(§1) The IC50 values (nM) were calculated as indicated in Methods.

In data set [12] the test system is NHEM (normal human epidermal melanocytes). The data set is described as above. Conditions: melanocytes (NHEM). The protocol:
as §1

The test system of data set [13] is 501Mel cells (parental). Briefly: Kinase inhibitor library screening, PrestoBlue cell viability, 1 or 10 μM, 72 h. As to conditions: 501Mel Parental. The method in brief:
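Parental cells and Vemurafenib-resistant (XP) or Dabrafenib-resistant (GP) derivatives were treated with library kinase inhibitors at 1 and 10 μM for 72 h. Viability measured by PrestoBlue and expressed as % of untreated cells, at least in duplicate.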

Data set [14] relates to 501Mel-GP cells (Dabrafenib-resistant). The description is as above. Conditions: 501Mel GP.
For data set [15], the system named is 501Mel-XP cells (Vemurafenib-resistant). The data set is described as above. As to conditions: 501Mel XP.
In data set [16] the test system is A375 cells (parental). Described as above. As to conditions: A375 Parental.
The subject of data set [17] is A375-GP cells (Dabrafenib-resistant). The data set is described as above. As to conditions: A375 GP.
Data set [18] relates to A375-XP cells (Vemurafenib-resistant). Described as above. As to conditions: A375 XP.
The test system of data set [19] is IGR37 cells (parental). Described as above. As to conditions: IGR37 Parental.
Data set [20] deals with IGR37-GP cells (Dabrafenib-resistant). The data set is described as above. Conditions: IGR37 GP.
Data set [21] has as its system IGR37-XP cells (Vemurafenib-resistant). The description is as above. Conditions: IGR37 XP.
In data set [22] the test system is A375 parental cells expressing iRFP. The experiment in a line: Long-term inhibitor treatment, iRFP fluorescence proliferation monitoring. It is filed as cell-based, human. As for the experimental part:
A375 parental and BRAFi-resistant cells, virally transduced with the near-infrared fluorescent protein (iRFP) were seeded at a density of 2500 cells/well in a 24-well plate (Greiner) in at least technical triplicates. Inhibitors, single or in combination, were added at the indicated amounts and replenished every 72 h for a duration of 76 days. To assess whether any remaining cells have become resistant to the treatment and would re-emerge, the drugs were removed and the cells underwent “drug holidays” for an additional 21 days. During the long-term treatment, cell proliferation was monitored bi-weekly on a LI-COR Odyssey Infrared Imaging System (LI-COR Biosciences). Fluorescence intensity was quantified with the Image Studio™ Lite software (LI-COR Biosciences).

Setting [23] is: Homo sapiens, A-375, n.e. = did not suppress growth below 50% in the tested concentration range.
Where [24] appears, read: n.e. = did not suppress growth below 50% in the tested concentration range.

Turning to `Cc1ccc(C(=O)Nc2ccc(CN3CCN(C)CC3)c(C(F)(F)F)c2)cc1C#Cc1cnc2cccnn12` [Ponatinib], the IC50 worked out at 628 nM in data set [1] (setting [23]); 177 nM in data set [2] (Homo sapiens); 226 nM in data set [3] (Homo sapiens); 1080 nM in data set [5] (Homo sapiens, IGR-37, 72 h); 1430 nM in data set [6] (Homo sapiens, 72 h); 1350 nM in [7] (Homo sapiens, 72 h). In addition, the IC50 in data set [8] (Homo sapiens, 72 h) stood at 1170 nM; in [9] (Homo sapiens, 72 h), 1340 nM; in data set [10] (Homo sapiens, 72 h), 1400 nM. Also, in [4], the “synergistic effects with the BRAF inhibitors Vemurafenib and/or Dabrafenib (in words)” value was “did not act synergistically”.
With `CC(C)(C)c1nc(-c2cccc(NS(=O)(=O)c3c(F)cccc3F)c2F)c(-c2ccnc(N)n2)s1` [Dabrafenib], the IC50 in data set [1] (setting [23]) was 1.9 nM. In addition, the “Half-maximal inhibitory concentration value (IC50), Mean” value in data set [2] and in [3] was “n.e” throughout. The “effect on healthy cells, cell viability (in words)” value in [11] and in data set [12] was “did not have any effect” throughout.
As for `Cc1ccc(C(=O)Nc2cccc(C(F)(F)F)c2)cc1Nc1nc(-c2cccnc2)nc2c1cnn2C` [NVP-BHG712, reference compound], the “cell viability (kinase inhibitor library screening)” value was found to be 103.2 in data set [13] (1μΜ, in %); 27.8 in [13] (10μΜ, in %); 107.1 in [14] (1μΜ, in %); 25.6 in data set [14] (10μΜ, in %); 121.0 in data set [15] (1μΜ, in %); 2.2 in data set [15] (10μΜ, in %). Besides, the “cell viability (kinase inhibitor library screening)” value in data set [16] (1μΜ, in %) is 103.3; in [16] (10μΜ, in %), 63.1; in data set [17] (1μΜ, in %) it was 80.6; in data set [17] (10μΜ, in %), 37.1; in data set [18] (1μΜ, in %), 84.7; in [18] (10μΜ, in %), 29.1. The “cell viability (kinase inhibitor library screening)” value in [19] (1μΜ, in %) is 107.5; in data set [19] (10μΜ, in %), 83.5; in data set [20] (1μΜ, in %) it was 97.4; in data set [20] (10μΜ, in %) it was 51.2; in [21] (1μΜ, in %), 103.3; in [21] (10μΜ, in %) it was 17.6. The IC50 in [1] (setting [24]) came out at 4420 nM; in data set [2], 3200 nM; in [3], 1900 nM; in [5] (IGR37 parental, 72 h cell viability) it was 5780 nM; in data set [6] (IGR37-XP (Vemurafenib-resistant), 72 h cell viability) it was 5950 nM; in [7] (IGR37-GP (Dabrafenib-resistant), 72 h cell viability), 7020 nM. The IC50 in data set [8] (501Mel parental, 72 h cell viability) is 4480 nM; in data set [9] (501Mel-XP (Vemurafenib-resistant), 72 h cell viability), 3820 nM; in [10] (501Mel-GP (Dabrafenib-resistant), 72 h cell viability), 4880 nM.
As to `COc1cc(OC)c(/C=C/S(=O)(=O)Cc2ccc(OC)c(NCC(=O)O)c2)c(OC)c1` [Rigosertib], the IC50 in [1] (setting [23]) was 64 nM; in data set [2] (Homo sapiens), 59 nM; in [3] (Homo sapiens), 50 nM; in [5] (Homo sapiens, IGR-37, 72 h), 103 nM; in data set [6] (Homo sapiens, 72 h) it was 121 nM; in [7] (Homo sapiens, 72 h), 90 nM. In addition, the IC50 worked out at 80 nM in [8] (Homo sapiens, 72 h); 63 nM in [9] (Homo sapiens, 72 h); 70 nM in data set [10] (Homo sapiens, 72 h). Further, the “synergistic effects with the BRAF inhibitors Vemurafenib and/or Dabrafenib (in words)” value in data set [4] is reported as “did not act synergistically”.
Consider `O=c1[nH]c2ccc(Cl)cc2c(N[C@@H]2CN3CCC2CC3)c1-c1nc2ccccc2[nH]1` [CHIR-124, reference compound], for which the “cell viability (kinase inhibitor library screening)” value stood at 47.8% in [13] (1μΜ, 72 h); 0.9% in data set [13] (10μΜ, 72 h); 40.5% in data set [14] (1μΜ, 72 h); 0.146% in data set [14] (10μΜ, 72 h); 26.0% in [15] (1μΜ, 72 h); 0.156% in data set [15] (10μΜ, 72 h). The “cell viability (kinase inhibitor library screening)” value was found to be 2.4% in data set [16] (10μΜ, 72 h); 23.5% in data set [16] (1μΜ, 72 h); 18.2% in [17] (1μΜ, 72 h); 1.5% in [17] (10μΜ, 72 h); 40.8% in [18] (1μΜ, 72 h); 1.5% in data set [18] (10μΜ, 72 h). Besides, the “cell viability (kinase inhibitor library screening)” value in data set [19] (1μΜ, 72 h) is 57.6%; in data set [19] (10μΜ, 72 h), 1.0%; in [20] (1μΜ, 72 h), 91.0%; in data set [20] (10μΜ, 72 h) it was 2.3%; in [21] (1μΜ, 72 h), 63.5%; in data set [21] (10μΜ, 72 h), 1.6%. For the same compound, the IC50 in data set [1] (setting [24]) stood at 233 nM; in data set [2], 321 nM; in data set [3] it was 278 nM. Moreover, the “synergistic effects with the BRAF inhibitors Vemurafenib and/or Dabrafenib (in words)” value in [4] is reported as “synergistic effects only with Dabrafenib”. In addition, the “long-term cell growth under drug until day 76 (in words)” value is recorded as “not sufficient to prevent cells to grow back” in [22] (150 nM, even with Dabrafenib (data not shown)) and “killed most of the cells” in data set [22] (300 nM single treatment).
